Where “and” joins values, the source holds several entries; their conditions need not be identical. Equal entries are not always repeated.
What was measured:
[1] = biological target: T1, butyrylcholinesterase (BChE) (Homo sapiens, UniProt P06276); assay: In vitro BChE inhibition (Ellman's technique); format: biochemical; conditions: Ellman assay, five concentrations, triplicate
Protocol: The semicarbazone derivatives were evaluated for their inhibitory activities against human acetylcholinesterase (AChE) and butyrylcholinesterase (BChE) enzymes using standard in vitro assays. The Ellman’s technique that was tailored to our lab’s needs was used to measure the activity of the cholinesterase enzyme. The test chemicals were first dissolved in DMSO at a concentration of 1 mg/mL to create stock solutions, which were then diluted 10 times with distilled water for use in the inhibition tests. Each compound’s inhibitory effects on the enzymes were evaluated at five different concentrations. Fifty microliters of distilled water, 50 μL of 0.1 M Tris–HCl buffer (pH 8.0), 15 μL of 0.015 M […] (as substrates), 30 μL of 0.06 M DTNB (5,5′-dithiobis(2-nitrobenzoic acid)), and 10 μL of enzyme solution made up the reaction mixture for the AChE and BChE tests. The absorbance of the blank solutions was measured before the substrate was added. The substrate was then added to each well to start the enzymatic reaction. Enzyme activity was kinetically assessed at 408 nm by using a microplate reader. Each inhibition measurement was repeated three times, and average values were taken when measuring the inhibitory potentials of the molecules. The IC50 values, indicating each compound’s inhibitory strength against cholinesterase, were determined by plotting percent activity versus inhibitor concentration.

[2] = biological target: T1, butyrylcholinesterase (BChE); assay: BChE enzyme kinetics (Lineweaver–Burk plots); format: biochemical; conditions: for inhibition type: Lineweaver–Burk plots; for Ki: substrate butyrylthiocholine iodide, Lineweaver–Burk, read-out: inhibition constant (K i)
Protocol: The enzymatic activity of BChE was evaluated at various concentrations of the substrate butyrylthiocholine iodide (BTChI) in the presence of fixed concentrations of each inhibitor. The resulting data were analyzed by Lineweaver–Burk double reciprocal plots to determine kinetic parameters such as K m, V max, and the inhibition type (Figure ).
Different concentrations of butyrylthiocholine iodide were used in the presence of three concentrations of each compound. Lineweaver–Burk plots were constructed by plotting the reciprocal of reaction velocity (1/V) against the reciprocal of substrate concentration (1/[S]). Based on these plots, the inhibition types were determined. The inhibition constant (K i) was calculated using the following equation (eq ). 2 slope=Km/Vmax×(1+[I]/Ki)

T1 sequence (P06276 29-602): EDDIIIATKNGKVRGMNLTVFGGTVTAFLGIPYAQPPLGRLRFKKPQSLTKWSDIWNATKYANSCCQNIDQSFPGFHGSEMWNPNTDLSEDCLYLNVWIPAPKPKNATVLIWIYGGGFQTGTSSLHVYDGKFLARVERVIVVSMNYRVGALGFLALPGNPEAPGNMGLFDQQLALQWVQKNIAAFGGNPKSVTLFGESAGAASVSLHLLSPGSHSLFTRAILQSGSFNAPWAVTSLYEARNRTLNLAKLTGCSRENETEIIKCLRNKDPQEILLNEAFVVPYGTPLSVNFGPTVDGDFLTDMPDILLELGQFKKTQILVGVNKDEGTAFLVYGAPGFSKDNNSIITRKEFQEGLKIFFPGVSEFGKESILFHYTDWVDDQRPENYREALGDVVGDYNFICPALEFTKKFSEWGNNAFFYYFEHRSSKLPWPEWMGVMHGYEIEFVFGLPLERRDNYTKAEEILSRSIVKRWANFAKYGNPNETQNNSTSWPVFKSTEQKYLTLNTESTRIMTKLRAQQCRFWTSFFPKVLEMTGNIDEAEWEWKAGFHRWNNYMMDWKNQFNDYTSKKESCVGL

Row | Structure (SMILES) | IC50 [1] | BChE IC50 [1] | inhibition type [2] | Ki [2]
1 | NC(=O)N/N=C/c1ccc(OS(=O)(=O)c2ccc(I)cc2)cc1 [Compound 5, 4-[(E)-(2-Carbamoylhydrazinylidene)methyl]phenyl 4-Iodobenzene-1-sulfonate] | 173 µM | – | – | –
2 | NC(=O)N/N=C/c1ccc(OS(=O)(=O)c2cccc(C(F)(F)F)c2)cc1 [Compound 9, 4-[(E)-(2-Carbamoylhydrazinylidene)methyl]phenyl-3-(trifluoromethyl)benzene-1-sulfonate] | 147 µM | – | – | –
3 | NC(=O)N/N=C/c1ccc(OS(=O)(=O)c2ccc([N+](=O)[O-])cc2)cc1 [Compound 15, 4-[(E)-(2-Carbamoylhydrazinylidene)methyl]phenyl 4-Nitrobenzene-1-sulfonate] | 347 µM | – | – | –
4 | Cc1ccc(S(=O)(=O)Oc2ccc(/C=N/NC(N)=O)cc2)cc1 [Compound 6, 4-[(E)-(2-Carbamoylhydrazinylidene)methyl]phenyl 4-Methylbenzene-1-sulfonate] | 178 µM | – | – | –
5 | NC(=O)N/N=C/c1ccc(OS(=O)(=O)c2ccccc2)cc1 [Compound 1, 4-[(E)-(2-Carbamoylhydrazinylidene)methyl]phenyl Benzenesulfonate] | 139 µM | – | – | –
6 | NC(=O)N/N=C/c1ccc(OS(=O)(=O)c2cc(C(F)(F)F)cc(C(F)(F)F)c2)cc1 [Compound 11, 4-[(E)-(2-Carbamoylhydrazinylidene)methyl]phenyl 3,5-Bis(trifluoromethyl)benzene-1-sulfonate] | < 130 µM and 114 µM | stronger inhibition than the reference drug pyridostigmine bromide | – | –
7 | NC(=O)N/N=C/c1ccc(OS(=O)(=O)c2ccc(OC(F)(F)F)cc2)cc1 [Compound 14, 4-[(E)-(2-Carbamoylhydrazinylidene)methyl]phenyl 4-(Trifluoromethoxy)benzene-1-sulfonate] | < 130 µM and 130 µM | stronger inhibition than the reference drug pyridostigmine bromide | – | –
8 | NC(=O)N/N=C/c1ccc(OS(=O)(=O)c2ccc(Cl)cc2)cc1 [Compound 3, 4-[(E)-(2-carbamoylhydrazinylidene)methyl]phenyl 4-Chlorobenzene-1-sulfonate] | 141 µM | – | – | –
9 | COc1ccc(S(=O)(=O)Oc2ccc(/C=N/NC(N)=O)cc2)cc1 [Compound 7, 4-[(E)-(2-Carbamoylhydrazinylidene)methyl]phenyl 4-Methoxybenzene-1-sulfonate] | 136 µM | – | – | –
10 | NC(=O)N/N=C/c1ccc(OS(=O)(=O)c2ccccc2OC(F)(F)F)cc1 [Compound 12, 4-[(E)-(2-Carbamoylhydrazinylidene)methyl]phenyl 2-(Trifluoromethoxy)benzene-1-sulfonate] | 61.9 µM and < 130 µM | stronger inhibition than the reference drug pyridostigmine bromide | reversible competitive inhibitors | 11.9 ± 3.31 µM
11 | NC(=O)N/N=C/c1ccc(OS(=O)(=O)c2ccc(Br)cc2)cc1 [Compound 4, 4-[(E)-(2-Carbamoylhydrazinylidene)methyl]phenyl 4-Bromobenzene-1-sulfonate] | 177 µM | – | – | –
12 | NC(=O)N/N=C/c1ccc(OS(=O)(=O)c2cccc3ccccc23)cc1 [Compound 17, 4-[(E)-(2-Carbamoylhydrazinylidene)methyl]phenyl Naphthalene-1-sulfonate] | 77 µM and < 130 µM | stronger inhibition than the reference drug pyridostigmine bromide | reversible competitive inhibitors | 9.08 ± 3.51 µM
13 | NC(=O)N/N=C/c1ccc(OS(=O)(=O)c2cccc(OC(F)(F)F)c2)cc1 [Compound 13, 4-[(E)-(2-Carbamoylhydrazinylidene)methyl]phenyl 3-(Trifluoromethoxy)benzene-1-sulfonate] | < 130 µM and 116 µM | stronger inhibition than the reference drug pyridostigmine bromide | – | –
14 | NC(=O)N/N=C/c1ccc(OS(=O)(=O)c2ccc3ccccc3c2)cc1 [Compound 18, 4-[(E)-(2-Carbamoylhydrazinylidene)methyl]phenyl Naphthalene-2-sulfonate] | 93.7 µM and < 130 µM | stronger inhibition than the reference drug pyridostigmine bromide | reversible competitive inhibitors | 5.49 ± 0.33 µM
15 | NC(=O)N/N=C/c1ccc(OS(=O)(=O)c2ccc(F)cc2)cc1 [Compound 2, 4-[(E)-(2-Carbamoylhydrazinylidene)methyl]phenyl 4-Fluorobenzene-1-sulfonate] | 161 µM | – | – | –
16 | NC(=O)N/N=C/c1ccc(OS(=O)(=O)c2ccccc2C(F)(F)F)cc1 [Compound 8, 4-[(E)-(2-Carbamoylhydrazinylidene)methyl]phenyl 2-(Trifluoromethyl)benzene-1-sulfonate] | 172 µM | – | – | –
17 | NC(=O)N/N=C/c1ccc(OS(=O)(=O)c2ccc(-c3ccccc3)cc2)cc1 [Compound 16, 4-[(E)-(2-Carbamoylhydrazinylidene)methyl]phenyl [1,1′-Biphenyl]-4-sulfonate] | < 130 µM and 112 µM | stronger inhibition than the reference drug pyridostigmine bromide | – | –
18 | NC(=O)N/N=C/c1ccc(OS(=O)(=O)c2ccc(C(F)(F)F)cc2)cc1 [Compound 10, 4-[(E)-(2-Carbamoylhydrazinylidene)methyl]phenyl-4-(trifluoromethyl)benzene-1-sulfonate] | 139 µM | – | – | –

From publication PMC12809313, “New Sulfonate-Semicarbazone Hybrid Molecules: Synthesis, Theoretical Evaluations, Molecular Simulations, and Butyrylcholinesterase Inhibition Activity” (ACS Omega, 2025)
